From PubChem BioAssay AID621 (Sanford-Burnham Center for Chemical Genomics, 2007)

Biological target: Bcl-2-related protein A1 (Mus musculus) (UniProt Q07440)
Assay: Bfl-1 inhibitors blocking BH3 peptide binding, confirmation, biochemical, TR-FRET, mouse Bfl-1 (AID 621)
Settings: TR-FRET Bfl-1 BH3 peptide binding displacement

Chain of Bcl-2-related protein A1 (Mus musculus) (Q07440 whole entry, looked up): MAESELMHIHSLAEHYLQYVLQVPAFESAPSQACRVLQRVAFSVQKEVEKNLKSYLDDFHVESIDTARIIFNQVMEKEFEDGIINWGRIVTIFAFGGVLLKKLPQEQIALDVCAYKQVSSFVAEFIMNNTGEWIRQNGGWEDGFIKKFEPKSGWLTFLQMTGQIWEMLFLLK

Question: With `Nc1ccc2ncccc2c1N` as the compound, how does the IC50 read?
Answer: Its IC50 is 3.49 µM.

Question: Which IC50 does the source give for `CCn1c(SCC(=O)O)nc2sc3c(c2c1=O)CCC3` here?
Answer: The IC50 was 14.5 µM.
